Source: patent US12134620B2 (ARAXES PHARMA LLC, priority 2018, dated 2024)

Target: T1, KRAS G12C 1-169, his-tagged protein, GDP-loaded (Homo sapiens, UniProt P01116, G12C)
T1 construct: KRAS G12C 1-169, his-tagged protein, GDP-loaded; His tag
Assay: Biochemical assay: covalent modification of KRAS G12C, analysed by mass spectrometry (RapidFire/TOF or Q-Exactive)
Format: binding
Conditions: Modification activity, modification percentage from MS peak intensities
Protocol: Test compounds are prepared as 10 mM stock solutions in DMSO (Fisher cat. #BP-231-100). KRAS G12C 1-169, his-tagged protein, GDP-loaded is diluted to 2 μM or 0.5 μM in buffer (20 mM Hepes, 150 mM NaCl, 1 mM MgCl2). Compounds are tested for activity as follows:
Compounds are diluted to 50× final test concentration in DMSO in 96-well storage plates. Compound stock solutions are vortexed before use and observed carefully for any sign of precipitation. Dilutions are as follow: • For 32 μM final compound concentration, compounds are diluted to 1600 μM (3 μL 10 mM compound stock+15.75 μL DMSO and mixed well by pipetting. • For 8 μM final compound concentration, compounds are diluted to 400 μM (2 μL 10 mM compound stock+48 μL DMSO) and mixed well by pipetting. 49 μL of the stock protein solution is added to each well of a 96-well PCR plate (Fisher cat #1423027). 1 μl of the diluted 50× compounds are added to appropriate wells in the PCR plate using 12-channel pipettor. Reactions are mixed carefully and thoroughly by pipetting up/down with a 200 μL multi-channel pipettor. The plate is sealed well with aluminum plate seal, and protein and compound are allowed to react for a desired amount of time. 5 μL of 2% formic acid (Fisher cat #A117) in de-ionized H2O is then added to each well followed by mixing with a pipette to quench the reaction. The plate is then resealed with aluminum seal and stored frozen on dry ice until analyzed as described below.
The above described assays are analyzed by mass spectrometry according to one of the following two procedures:
The MS instrument is set to positive polarity, 2 GHz resolution, and low mass (1700) mode and allowed to equilibrate for 30 minutes. The instrument is then calibrated, switched to acquisition mode and the appropriate method loaded.
After another 30 minute equilibration time, a blank batch (i.e., buffer) is run to ensure equipment is operating properly. The samples are thawed at 37° C. for 10 minutes, briefly centrifuged, and transfer to the bench top. Wells A1 and H12 are spiked with 1 μL 500 μM internal standard peptide, and the plates centrifuged at 2000×g for 5 minutes. The method is then run and masses of each individual well recorded.
The masses (for which integration data is desired) for each well are pasted into the platemap and exported from the analysis. Masses for the internal standards are exported as well. The data at 50 ppm is extracted for the +19 charge state, and identity of well A1 is assigned using the internal standard spike and integrated. Peak data is exported as a TOF list and the above steps are repeated individually, for the +20, +21, +22, +23, +24, and +25 charge states.
The masses and peak intensities of KRAS G12C protein species are measured using a Dionex RSLCnano system (Thermo Scientific) connected to a Q Exactive Plus mass spectrometer (Thermo Scientific).
20 μL of sample is each loaded onto a Aeris™ 3.6 μm WIDEPORE C4 200 Å, LC Column 50×2.1 mm column maintained at 40° C. at a flow rate of 600 μL/min with 80% Solvent A (0.1% formic acid in H2O) and 20% Solvent B (0.1% formic acid in acetonitrile). The liquid chromatography conditions are 20% solvent B for 1 minute, 20% to 60% solvent B for 1.5 minutes, 60% to 90% solvent for 0.5 minute, 90% solvent B for 0.2 minute, 90% to 20% solvent B for 0.2 minute, and then equilibrated for 1.6 minute before the following sample injection. The flow rate is maintained at 600 μL/min throughout the sample analysis.
The mass spectrometer is operated in profile mode at a resolution of 17500, 5 microscans, using 50 msec max injection time and an AGC target of 1×10^6, and a full mass range from 800-1850 m/z is recorded. The intact protein mode is applied for optimal ion transfer and maximum sensitivity. The ionization method is electrospray ionization, which used a spray voltage of 4 kV, sheath gas flow set to 50 AU, auxiliary gas flow set to 10 AU and sweep gas flow set to 1 AU. […]

Structure (SMILES) | Binding %
C=CC(=O)N1CC2(CCN(c3nc(N4CCCC4)nc(-c4c(C)ccc5[nH]ncc45)c3C#N)C2)C1 [Compound I-1, 4-(2-acryloyl-2,6-diazaspiro[3.4]octan-6-yl)-6-(5-methyl-1H-indazol-4-yl)-2-(pyrrolidin-1-yl)pyrimidine-5-carbonitrile] | +++ (+++ indicates binding activity greater than 85%)
C=CC(=O)N1CC2(CCN(c3nc(OC[C@@H]4CCCN4C)nc(-c4c(C)ccc5[nH]ncc45)c3C#N)C2)C1 [Compound I-2, 4-(2-acryloyl-2,6-diazaspiro[3.4]octan-6-yl)-6-(5-methyl-1H-indazol-4-yl)-2-(((S)-1-methylpyrrolidin-2-yl)methoxy)pyrimidine-5-carbonitrile] | +++ (+++ indicates binding activity greater than 85%)
C=CC(=O)N1CC2(CCN(c3nc(N4CCOCC4)nc(-c4c(C)ccc5[nH]ncc45)c3C#N)C2)C1 [Compound I-3, 4-(2-acryloyl-2,6-diazaspiro[3.4]octan-6-yl)-6-(5-methyl-1H-indazol-4-yl)-2-morpholinopyrimidine-5-carbonitrile] | +++ (+++ indicates binding activity greater than 85%)
C=CC(=O)N1CC2(CCN(c3nc(N4CC(N(C)C)C4)nc(-c4c(C)ccc5[nH]ncc45)c3C#N)C2)C1 [Compound I-4, 4-(2-acryloyl-2,6-diazaspiro[3.4]octan-6-yl)-2-(3-(dimethylamino)azeti-din-1-yl)-6-(5-methyl-1H-indazol-4-yl)pyrimidine-5-carbonitrile] | +++ (+++ indicates binding activity greater than 85%)
C=CC(=O)N1CC2(CCN(c3nc(OCCCN(C)C)nc(-c4c(C)ccc5[nH]ncc45)c3C#N)C2)C1 [Compound I-5, 4-(2-acryloyl-2,6-diazaspiro[3.4]octan-6-yl)-2-(3-(dimethylamino)pro-poxy)-6-(5-methyl-1H-indazol-4-yl)pyrimidine-5-carbonitrile] | +++ (+++ indicates binding activity greater than 85%)
C=CC(=O)N1CC2(CCN(c3nc(OC[C@H]4CCCN4C)nc(-c4c(C)ccc5[nH]ncc45)c3C#N)C2)C1 [Compound I-6, 4-(2-acryloyl-2,6-diazaspiro[3.4]octan-6-yl)-6-(5-methyl-1H-indazol-4-yl)-2-(((R)-1-methylpyrrolidin-2-yl)methoxy)pyrimidine-5-carbonitrile] | +++ (+++ indicates binding activity greater than 85%)
C=CC(=O)N1CC2(CCN(c3nc(OCCc4ccccn4)nc(-c4c(C)ccc5[nH]ncc45)c3C#N)C2)C1 [Compound I-8, 4-(2-acryloyl-2,6-diazaspiro[3.4]octan-6-yl)-6-(5-methyl-1H-indazol-4-yl)-2-(2-(pyridin-2-yl)ethoxy)pyrimidine-5-carbonitrile] | +++ (+++ indicates binding activity greater than 85%)
C=CC(=O)N1CC2(CCN(c3nc(C#N)nc(-c4c(C)ccc5[nH]ncc45)c3C#N)C2)C1 [Compound I-10, 4-(2-acryloyl-2,6-diazaspiro[3.4]octan-6-yl)-6-(5-methyl-1H-indazol-4-yl)pyrimidine-2,5-dicarbonitrile] | ++ (++ indicates binding activity from 50 to 85%)
C=CC(=O)N1CC2(CCN(c3nc(-n4ccnc4)nc(-c4c(C)ccc5[nH]ncc45)c3C#N)C2)C1 [Compound I-11, 4-(2-acryloyl-2,6-diazaspiro[3.4]octan-6-yl)-2-(1H-imidazol-1-yl)-6-(5-methyl-1H-indazol-4-yl)pyrimidine-5-carbonitrile] | +++ (+++ indicates binding activity greater than 85%)
C=CC(=O)N1CC2(CCN(c3nc(OCCN4CCCC4)nc(-c4c(C)ccc5[nH]ncc45)c3C#N)C2)C1 [Compound I-12, 4-(2-acryloyl-2,6-diazaspiro[3.4]octan-6-yl)-6-(5-methyl-1H-indazol-4-yl)-2-(2-(pyrrolidin-1-yl)ethoxy)pyrimidine-5-carbonitrile] | ++ (++ indicates binding activity from 50 to 85%)
C=CC(=O)N1CC2(CCN(c3nc(OC[C@@H]4CCCN4C)nc(N4CCCC(O)C4)c3C#N)C2)C1 (stereo partly drawn) [Compound I-13, 4-(2-acryloyl-2,6-diazaspiro[3.4]octan-6-yl)-6-(3-hydroxypiperidin-1-yl)-2-(((S)-1-methylpyrrolidin-2-yl)methoxy)pyrimidine-5-carbonitrile] | + (+ indicates binding activity greater than 0% and up to 50%)
C=CC(=O)N1CC2(CCN(c3nc(OCCc4ncccn4)nc(-c4c(C)ccc5[nH]ncc45)c3C#N)C2)C1 [Compound I-14, 4-(2-acryloyl-2,6-diazaspiro[3.4]octan-6-yl)-6-(5-methyl-1H-indazol-4-yl)-2-(2-(pyrimidin-2-yl)ethoxy)pyrimidine-5-carbonitrile] | ++ (++ indicates binding activity from 50 to 85%)
C=CC(=O)N1CC2(CCN(c3nc(OCc4ccccn4)nc(-c4c(C)ccc5[nH]ncc45)c3C#N)C2)C1 [Compound I-15, 4-(2-acryloyl-2,6-diazaspiro[3.4]octan-6-yl)-6-(5-methyl-1H-indazol-4-yl)-2-(pyridin-2-ylmethoxy)pyrimidine-5-carbonitrile] | +++ (+++ indicates binding activity greater than 85%)
C=CC(=O)N1CC2(CCN(c3nc(OC[C@@H]4CCCN4C)nc(-c4ccccc4C(F)(F)F)c3C#N)C2)C1 [Compound I-16, (S)-4-(2-acryloyl-2,6-diazaspiro[3.4]octan-6-yl)-2-((1-methylpyrrolidin-2-yl)methoxy)-6-(2-(trifluoromethyl)phe-nyl)pyrimidine-5-carbonitrile] | + (+ indicates binding activity greater than 0% and up to 50%)
C=CC(=O)N1CC2(CCN(c3nc(OC[C@@H]4CCCN4C)nc(-c4cccc5c4OC(F)(F)O5)c3C#N)C2)C1 [Compound I-17, (S)-4-(2-acryloyl-2,6-diazaspiro[3.4]octan-6-yl)-6-(2,2-difluorobenzo[d][1,3]dioxol-4-yl)-2-((1-methylpyrrolidin-2-yl)methoxy)pyrimidine-5-carbonitrile] | + (+ indicates binding activity greater than 0% and up to 50%)
C=CC(=O)N1CC2(CCN(c3nc(OC[C@@H]4CCCN4C)nc(NCc4cccnc4)c3C#N)C2)C1 [Compound I-18, (S)-4-(2-acryloyl-2,6-diazaspiro[3.4]octan-6-yl)-2-((1-methylpyrrolidin-2-yl)methoxy)-6-((pyridin-3-ylmethyl)amino)pyri-midine-5-carbonitrile] | + (+ indicates binding activity greater than 0% and up to 50%)
C=CC(=O)N1CC2(CCN(c3nc(Oc4cnn(C)c4)nc(-c4c(C)ccc5[nH]ncc45)c3C#N)C2)C1 [Compound I-19, 4-(2-acryloyl-2,6-diazaspiro[3.4]octan-6-yl)-6-(5-methyl-1H-indazol-4-yl)-2-((1-methyl-1H-pyrazol-4-yl)oxy)pyrimidine-5-carbonitrile] | ++ (++ indicates binding activity from 50 to 85%)
C=CC(=O)N1CC2(CCN(c3nc(OCCN4CCCC4=O)nc(-c4c(C)ccc5[nH]ncc45)c3C#N)C2)C1 [Compound I-20, 4-(2-acryloyl-2,6-diazaspiro[3.4]octan-6-yl)-6-(5-methyl-1H-indazol-4-yl)-2-(2-(2-oxopyrrolidin-1-yl)ethoxy)pyrimidine-5-carbonitrile] | ++ (++ indicates binding activity from 50 to 85%)
